In brackets after ≈: the same amount, converted by molar mass. Activity calls are given as the source filed them. The rule behind the calls is not given here.
Key:
Staphylococcus aureus [1] = assay: Antibacterial activity against Staphylococcus aureus 1199 measured after 24 hrs by Muller Hinton broth based MTT assay; type: functional
Staphylococcus aureus [2] = assay: Antibacterial activity against Staphylococcus aureus K1758 measured after 24 hrs by Muller Hinton broth based MTT assay; type: functional
Staphylococcus aureus [3] = assay: Antibacterial activity against Staphylococcus aureus 1199B measured after 24 hrs by Muller Hinton broth based MTT assay; type: functional
[4] = target: T1, Quinolone resistance protein NorA (Staphylococcus aureus) (UniProt P0A0J7); assay: Inhibition of NorA in Staphylococcus aureus 1199B assessed as potentiation of ethidium bromide-induced antibacterial activity by measuring ethidium bromide MIC at sub MIC
T1 sequence (whole entry): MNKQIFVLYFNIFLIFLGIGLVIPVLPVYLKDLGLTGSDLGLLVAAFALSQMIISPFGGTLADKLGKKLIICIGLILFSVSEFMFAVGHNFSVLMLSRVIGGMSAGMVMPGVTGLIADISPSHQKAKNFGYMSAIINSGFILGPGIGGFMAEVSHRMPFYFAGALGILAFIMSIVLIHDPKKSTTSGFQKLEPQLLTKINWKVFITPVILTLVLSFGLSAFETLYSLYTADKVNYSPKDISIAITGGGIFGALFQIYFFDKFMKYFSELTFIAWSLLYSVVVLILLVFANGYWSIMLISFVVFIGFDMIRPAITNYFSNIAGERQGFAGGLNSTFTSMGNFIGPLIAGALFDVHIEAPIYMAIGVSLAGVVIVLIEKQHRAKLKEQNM

[5] = target: T1, Quinolone resistance protein NorA (Staphylococcus aureus); assay: Inhibition of NorA in Staphylococcus aureus 1199B assessed as potentiation of 3.1 ug/mL norfloxacin-induced bactericidal activity by measuring log reduction in bacterial count at 7.8 ug/mL measured after 12 hrs by time-kill kinetics assay; conditions: dose 7.8 µg/ml
[6] = target: T1, Quinolone resistance protein NorA (Staphylococcus aureus); assay: Inhibition of NorA in Staphylococcus aureus 1199B assessed as potentiation of norfloxacin-induced antibacterial activity by measuring fractional inhibitory concentration
[7] = target: T1, Quinolone resistance protein NorA (Staphylococcus aureus); assay: Inhibition of NorA in Staphylococcus aureus 1199B assessed as potentiation of ethidium bromide-induced antibacterial activity by measuring ethidium bromide MIC at sub MIC relative to ethidium bromide MIC alone
[8] = target: T1, Quinolone resistance protein NorA (Staphylococcus aureus); assay: Inhibition of NorA in Staphylococcus aureus 1199B assessed as accumulation of norfloxacin at 3.9 ug/ml by measuring fluorescence intensity measured at 5 mins interval for 40 mins by fluorescence spectrophotometry; conditions: dose 3.9 µg/ml
[9] = target: T1, Quinolone resistance protein NorA (Staphylococcus aureus); assay: Inhibition of NorA in Staphylococcus aureus 1199B assessed as potentiation of ethidium bromide-induced bactericidal activity at 7.8 ug/ml measured within 8 hrs by time-kill kinetics assay; conditions: dose 7.8 µg/ml
[10] = Cytotoxicity against kidney epithelial cells (unknown origin) assessed as cell viability at 50 ug/mL measured after 24 hrs by alamar blue assay relative to control; type: toxicity, cell-based, Fetal kidney cell; conditions: at 50 µg/mL, read-out: Activity
[11] = target: T1, Quinolone resistance protein NorA (Staphylococcus aureus); assay: Inhibition of NorA in Staphylococcus aureus 1199B assessed as potentiation of ethidium bromide-induced antibacterial activity by measuring fractional inhibitory concentration
[12] = target: T1, Quinolone resistance protein NorA (Staphylococcus aureus); assay: Inhibition of NorA in Staphylococcus aureus 1199B assessed as accumulation of ethidium bromide at 3.9 ug/ml by measuring fluorescence intensity measured at 5 mins interval for 40 mins by fluorescence spectrophotometry; conditions: dose 3.9 µg/ml
[13] = target: T1, Quinolone resistance protein NorA (Staphylococcus aureus); assay: Inhibition of NorA in Staphylococcus aureus 1199B assessed as potentiation of norfloxacin-induced antibacterial activity by measuring Norfloxacin MIC at sub MIC
[14] = target: T1, Quinolone resistance protein NorA (Staphylococcus aureus); assay: Inhibition of NorA in Staphylococcus aureus 1199B assessed as potentiation of norfloxacin-induced antibacterial activity by measuring Norfloxacin MIC at sub MIC relative to norfloxacin MIC alone
[15] = target: T1, Quinolone resistance protein NorA (Staphylococcus aureus); assay: Inhibition of NorA in Staphylococcus aureus 1199B assessed as potentiation of 3.1 ug/mL norfloxacin-induced bactericidal activity by measuring log reduction in bacterial count at 7.8 ug/mL measured after 24 hrs by time-kill kinetics assay; conditions: dose 7.8 µg/ml
[16] = target: T1, Quinolone resistance protein NorA (Staphylococcus aureus); assay: Inhibition of NorA in Staphylococcus aureus 1199B infected human THP-1 cells assessed as potentiation of 6.2 ug/ml norfloxacin-induced bactericidal activity by measuring log reduction in bacterial count at 15.6 ug/ml measured after 24 hrs relative to control; type: cell-based; conditions: dose 15.6 µg/ml
Staphylococcus aureus [17] = assay: Down regulation of NorA gene expression in Staphylococcus aureus 1199B at 3.1 ug/ml measured after 2 hrs by qRT-PCR analysis relative to control; type: functional; conditions: dose 3.1 µg/ml
[18] = target: T1, Quinolone resistance protein NorA (Staphylococcus aureus); assay: Inhibition of NorA in Staphylococcus aureus 1199B infected human THP-1 cells assessed as potentiation of norfloxacin-induced bactericidal activity by measuring reduction in intracellular proliferation at modulatory concentration measured after 24 hrs; type: cell-based
[19] = target: T1, Quinolone resistance protein NorA (Staphylococcus aureus); assay: Inhibition of NorA in Staphylococcus aureus 1199B infected human THP-1 cells assessed as potentiation of norfloxacin-induced bactericidal activity by measuring reduction in intracellular invasion at modulatory concentration measured after 24 hrs; type: cell-based
[20] = target: T1, Quinolone resistance protein NorA (Staphylococcus aureus); assay: Inhibition of NorA in Staphylococcus aureus 1199B assessed as potentiation of norfloxacin-induced morphological changes by measuring appearance of undeveloped cells sticking together at sub MIC by field emission scanning electron microscopy
[21] = target: T1, Quinolone resistance protein NorA (Staphylococcus aureus); assay: Inhibition of NorA in Staphylococcus aureus 1199B assessed as potentiation of ethidium bromide-induced bactericidal activity at 62.5 ug/ml measured within 8 hrs by time-kill kinetics assay; conditions: dose 62.5 µg/ml
[22] = target: T1, Quinolone resistance protein NorA (Staphylococcus aureus); assay: Inhibition of NorA in Staphylococcus aureus 1199B assessed as potentiation of 3.1 ug/mL norfloxacin-induced bactericidal activity by measuring log reduction in bacterial count at 7.8 ug/mL measured after 8 hrs by time-kill kinetics assay; conditions: dose 7.8 µg/ml
Staphylococcus aureus [23] = assay: Down regulation of NorA gene expression in Staphylococcus aureus 1199B at 3.9 ug/ml measured after 2 hrs by qRT-PCR analysis; type: functional; conditions: dose 3.9 µg/ml
[24] = target: T1, Quinolone resistance protein NorA (Staphylococcus aureus); assay: Inhibition of NorA in Staphylococcus aureus 1199B infected human THP-1 cells assessed as potentiation of norfloxacin-induced bactericidal activity by measuring reduction in bacterial count at modulatory concentration measured after 24 hrs; type: cell-based
Staphylococcus aureus [25] = assay: Down regulation of NorA gene expression in Staphylococcus aureus 1199B at 3.1 ug/ml measured after 2 hrs in presence of norfloxacin by qRT-PCR analysis relative to norfloxacin; type: functional; conditions: dose 3.1 µg/ml
[26] = target: T1, Quinolone resistance protein NorA (Staphylococcus aureus); assay: Inhibition of NorA in Staphylococcus aureus 1199B infected human THP-1 cells assessed as potentiation of norfloxacin-induced bactericidal activity by measuring reduction in bacterial count at modulatory concentration measured after 24 hrs relative to control; type: cell-based
[27] = target: T1, Quinolone resistance protein NorA (Staphylococcus aureus); assay: Inhibition of NorA in Staphylococcus aureus 1199B infected human THP-1 cells assessed as potentiation of norfloxacin-induced bactericidal activity by measuring log reduction in bacterial count measured after 24 hrs relative to vancomycin; type: cell-based

In the case of `O=C(O)c1cn(C2CC2)c2cc(N3CCNCC3)c(F)cc2c1=O` [CIPROFLOXACIN], the MIC (Staphylococcus aureus [1]) is reported as 0.05 µg/mL (≈ 0.151 µM), the MIC (Staphylococcus aureus [2]) is reported as 0.05 µg/mL (≈ 0.151 µM) and the MIC (Staphylococcus aureus [3]) is reported as 0.21 µg/mL (≈ 0.634 µM).

Molecule `CC1(C)S[C@@H]2[C@H](NC(=O)[C@H](N)c3ccccc3)C(=O)N2[C@H]1C(=O)O` [AMPICILLIN] has an MIC (Staphylococcus aureus [1]) of 0.05 µg/mL (≈ 0.143 µM), an MIC (Staphylococcus aureus [2]) of 0.1 µg/mL (≈ 0.286 µM) and an MIC (Staphylococcus aureus [3]) of 0.42 µg/mL (≈ 1.2 µM).

In the case of `Fc1ccccc1C1=NC(c2ccc(Br)cc2)Nc2ccc(Cl)cc21` (stereo not drawn), the MIC (Staphylococcus aureus [1]) is reported as 125 µg/mL (≈ 301 µM), the MIC (Staphylococcus aureus [2]) is reported as 250 µg/mL (≈ 601 µM) and the MIC (Staphylococcus aureus [3]) is reported as greater than 1000 µg/mL.

In the case of `O=[N+]([O-])c1ccc2c(c1)C(c1ccccc1)=NC(c1ccccc1)N2` (stereo not drawn), the MIC (Staphylococcus aureus [1]) is reported as 125 µg/mL (≈ 380 µM), the MIC (Staphylococcus aureus [2]) is reported as 250 µg/mL (≈ 759 µM) and the MIC (Staphylococcus aureus [3]) is reported as 500 µg/mL (≈ 1520 µM).

`Cc1onc(-c2ccccc2)c1C(=O)N[C@@H]1C(=O)N2[C@@H]1SC(C)(C)[C@@H]2C(=O)O` [OXACILLIN] gave an MIC (Staphylococcus aureus [1]) of 0.1 µg/mL (≈ 0.249 µM), an MIC (Staphylococcus aureus [2]) of 0.1 µg/mL (≈ 0.249 µM) and an MIC (Staphylococcus aureus [3]) of 0.42 µg/mL (≈ 1.05 µM).

`CN1c2ccc(Cl)cc2C(c2ccccc2)=NC1c1ccccc1` (stereo not drawn) gave an MIC [4] of 12.5 µg/mL, an Activity [5] greater than 3 log10CFU/ml and a fractional inhibitory concentration index (FICI) [6] of 0.141. For the same molecule, the fold change (FC) [7] was 4, the Flu intensity [8] was 1560 and the inhibition [9] was “Active”. The MIC (Staphylococcus aureus [1]) was 125 µg/mL (≈ 376 µM), the viability at 24 h, 50 ug/mL [10] was 5% and the fractional inhibitory concentration index (FICI) [11] was 0.266. It also gave an MIC (Staphylococcus aureus [2]) of 250 µg/mL (≈ 751 µM), a Flu intensity [12] of 143 and an MIC [13] of 6.2 µg/mL. It also gave a fold change (FC) [14] of 8 and an MIC (Staphylococcus aureus [3]) of 500 µg/mL (≈ 1500 µM).

Molecule `CN1c2ccc(Cl)cc2C(c2ccccc2)=NC1c1ccc([N+](=O)[O-])cc1` (stereo not drawn) has an MIC [4] of 6.2 µg/mL, a fractional inhibitory concentration index (FICI) [6] of 0.141 and a fold change (FC) [7] of 8. The Flu intensity [8] was 573, the MIC (Staphylococcus aureus [1]) was 125 µg/mL (≈ 331 µM) and the viability at 24 h, 50 ug/mL [10] was 83.1%. It also gave a fractional inhibitory concentration index (FICI) [11] of 0.25, an Activity [15] greater than 3 log10CFU/ml and an MIC (Staphylococcus aureus [2]) of 250 µg/mL (≈ 662 µM). It also gave a Flu intensity [12] of 100, an MIC [13] of 6.2 µg/mL and a fold change (FC) [14] of 8. It also gave an MIC (Staphylococcus aureus [3]) of 250 µg/mL (≈ 662 µM).

With `CN(C)[C@@H]1C(O)=C(C(N)=O)C(=O)[C@@]2(O)C(O)=C3C(=O)c4c(O)cccc4[C@@](C)(O)[C@H]3C[C@@H]12` [TETRACYCLINE] the MIC (Staphylococcus aureus [1]) was 0.02 µg/mL (≈ 0.045 µM), the MIC (Staphylococcus aureus [2]) was 0.1 µg/mL (≈ 0.225 µM) and the MIC (Staphylococcus aureus [3]) was 0.42 µg/mL (≈ 0.945 µM).

For `CO[C@H]1/C=C/O[C@@]2(C)Oc3c(C)c(O)c4c(O)c(c(/C=N/N5CCN(C)CC5)c(O)c4c3C2=O)NC(=O)/C(C)=C\C=C\[C@H](C)[C@H](O)[C@@H](C)[C@@H](O)[C@@H](C)[C@H](OC(C)=O)[C@@H]1C` [RIFAMPIN], the MIC (Staphylococcus aureus [1]) was 0.1 µg/mL (≈ 0.122 µM), the MIC (Staphylococcus aureus [2]) was 0.1 µg/mL (≈ 0.122 µM) and the MIC (Staphylococcus aureus [3]) was 0.21 µg/mL (≈ 0.255 µM).

GENTAMICIN gave an MIC (Staphylococcus aureus [1]) of 0.21 µg/mL, an MIC (Staphylococcus aureus [2]) of 0.1 µg/mL and an MIC (Staphylococcus aureus [3]) of 1.7 µg/mL.

For `CN1c2ccc(Cl)cc2C(c2ccccc2)=NC1c1ccc(Br)cc1` (stereo not drawn), the FC [16] was 5, the MIC [4] was 3.1 µg/mL and the fold change (FC) (Staphylococcus aureus [17]) was 8. For the same molecule, the inhibition [18] was “Active”, the inhibition [19] was “Active” and the fractional inhibitory concentration index (FICI) [6] was 0.141. For the same molecule, the inhibition [20] was “Active”, the fold change (FC) [7] was 16 and the Flu intensity [8] was 23600. For the same molecule, the inhibition [21] was “Active”, the Activity [22] was greater than 3 log10CFU/ml and the Activity (Staphylococcus aureus [23]) was “Active”. The Activity [24] was 4.47 log10CFU/ml, the MIC (Staphylococcus aureus [1]) was 125 µg/mL (≈ 304 µM) and the viability at 24 h, 50 ug/mL [10] was 86.6%. It also gave a fractional inhibitory concentration index (FICI) [11] of 0.187, a fold change (FC) (Staphylococcus aureus [25]) of 9 and an MIC (Staphylococcus aureus [2]) of 250 µg/mL (≈ 607 µM). The fold change (FC) [26] was 4, the Flu intensity [12] was 70.6 and the MIC [13] was 6.2 µg/mL. It also gave a fold change (FC) [14] of 8, an MIC (Staphylococcus aureus [3]) of 500 µg/mL (≈ 1210 µM) and an FC [27] of 3.

`CN1c2ccc(Cl)cc2C(c2ccccc2)=NC1c1ccco1` (stereo not drawn) showed an MIC (Staphylococcus aureus [1]) of 125 µg/mL (≈ 387 µM), an MIC (Staphylococcus aureus [2]) of 250 µg/mL (≈ 774 µM) and an MIC (Staphylococcus aureus [3]) greater than 1000 µg/mL.

Source: ChEMBL document CHEMBL5143555, “Potentiating the intracellular killing of Staphylococcus aureus by dihydroquinazoline analogues as NorA efflux pump inhibitor” (Bioorg Med Chem, 2022)
